± gives the uncertainty stated by the source.
Assay: xn = mol fraction of the nth substance listed
Conditions: 101 kPa; for electrical conductivity: x1 = 1

CCCCCCCC[n+]1ccc2ccccc2c1.O=S(=O)([N-]S(=O)(=O)C(F)(F)F)C(F)(F)F + OCCc1ccccc1
Conditions	viscosity [mPa·s]
298.15 K, x2 = 0.5766	60.64 ± 0.67
298.15 K, x2 = 0.8956	18.61 ± 0.19
308.15 K, x2 = 0.695	25 ± 0.29
318.15 K, x2 = 0.1985	71.5 ± 1.1
318.15 K, x2 = 0.3748	45.28 ± 0.57
318.15 K, x2 = 0.5766	23.86 ± 0.26
328.15 K, x2 = 0.0851	58.53 ± 0.8
328.15 K, x2 = 0.3748	30.17 ± 0.35
328.15 K, x2 = 0.5766	16.54 ± 0.17
328.15 K, x2 = 0.695	11.76 ± 0.11
338.15 K, x2 = 0.0851	39.05 ± 0.56
338.15 K, x2 = 0.3748	21.2 ± 0.25
338.15 K, x2 = 0.695	8.67 ± 0.08

CC[n+]1ccn(C)c1.O=S(=O)([O-])C(F)(F)F + [I-].[Li+]
Conditions	electrical conductivity [S/m]
288.15 K	0.605 ± 0.061
298.15 K	0.859 ± 0.086
333.15 K	2.24 ± 0.22

CCCCCCCC[n+]1ccc2ccccc2c1.O=S(=O)([N-]S(=O)(=O)C(F)(F)F)C(F)(F)F + c1ccccc1
Conditions	viscosity [mPa·s]
298.15 K, x2 = 0	369 ± 25
298.15 K, x2 = 0.4679	67 ± 1.5
298.15 K, x2 = 0.673	10.93 ± 0.24
298.15 K, x2 = 0.7443	5.93 ± 0.13
308.15 K, x2 = 0.4679	40.99 ± 0.91
318.15 K, x2 = 0	108.7 ± 3.6
318.15 K, x2 = 0.332	47.7 ± 1.1
318.15 K, x2 = 0.5663	16.93 ± 0.37
328.15 K, x2 = 0.1505	50.4 ± 1.1
328.15 K, x2 = 0.332	31.8 ± 0.71
328.15 K, x2 = 0.673	4.75 ± 0.1
338.15 K, x2 = 0.673	3.83 ± 0.08
338.15 K, x2 = 0.8143	1.48 ± 0.03
348.15 K, x2 = 0.332	16.29 ± 0.36
348.15 K, x2 = 0.654	4.92 ± 0.11
348.15 K, x2 = 0.8961	0.49 ± 0.01

CCCCCCCC[n+]1ccc2ccccc2c1.O=S(=O)([N-]S(=O)(=O)C(F)(F)F)C(F)(F)F + c1ccncc1
Conditions	viscosity [mPa·s]
308.15 K, x2 = 0.0945	155 ± 6.4
308.15 K, x2 = 0.8199	5.32 ± 0.11
328.15 K, x2 = 0	67.9 ± 1.6
328.15 K, x2 = 0.7274	4.82 ± 0.1
338.15 K, x2 = 0.0945	38.2 ± 0.88
338.15 K, x2 = 0.5383	10.76 ± 0.24
338.15 K, x2 = 0.8199	3.09 ± 0.07
348.15 K, x2 = 0.0945	26.97 ± 0.62

CCCCCCCC[n+]1ccc2ccccc2c1.O=S(=O)([N-]S(=O)(=O)C(F)(F)F)C(F)(F)F + c1ccsc1
Conditions	viscosity [mPa·s]
298.15 K, x2 = 0.542	42.73 ± 0.94
298.15 K, x2 = 0.821	7.64 ± 0.16
308.15 K, x2 = 0.0964	158.7 ± 6.6
308.15 K, x2 = 0.542	27.8 ± 0.61
308.15 K, x2 = 0.6385	16.12 ± 0.35
308.15 K, x2 = 0.821	6.02 ± 0.13
308.15 K, x2 = 0.9065	2.78 ± 0.06
318.15 K, x2 = 0	108.7 ± 3.6
318.15 K, x2 = 0.0964	92.2 ± 2.7
318.15 K, x2 = 0.2739	54.7 ± 1.2
318.15 K, x2 = 0.9065	2.36 ± 0.05
338.15 K, x2 = 0.3572	20.4 ± 0.46
348.15 K, x2 = 0.4456	11.37 ± 0.25
